The record followed here is PubChem BioAssay AID2742 (NMMLSC, 2010).

SMILES strings stand for the structures. Where “and” joins values, the source holds several entries; their conditions need not be identical. Identical values can stand only once. Calls of active or inactive are those of the source.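 The calls were made as follows: active = fitted half-maximal concentration for changing background-corrected GFP signal at or below a set limit; inactive = the rest.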

This test in a line: modulators of MEP2-GFP levels in yeast, dose response, S. cerevisiae, flow cytometry GFP, MLPCN hits (AID 2742).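 Also: GFP tag reports level of MEP2 protein as a downstream target of TOR signalling.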 Conditions: S. cerevisiae MEP2-GFP strain, flow cytometry fluorescence, 3 h; at 33 µM (top of the series).

Turning to `COc1cc(/C=C2\C(=O)ON=C2c2ccc(Cl)cc2)ccc1O`, the GFP fluorescence (kMESF), higher = increase was 3.71 kMESF (inactive).
The value for `O=C(Nc1cccc(C(F)(F)F)c1)Oc1ccc(Cl)c2cccnc12` was 2.78 kMESF (inactive).
Consider `COc1ccc(/C=C/C(=O)C2C(=O)C=C(C)OC2=O)cc1O` (stereo unspecified), for which the GFP fluorescence (kMESF), higher = increase is 5.45 kMESF (inactive).
The value for `COc1cccc(N=Nc2ccc(O)c3ncccc23)c1` was 5.8 kMESF (inactive); that for `O=C(/C=C/c1ccccc1Cl)c1ccccc(=O)c1O` was -0.57 kMESF (inactive).
Consider `COc1ccccc1[C@@]1(C)ON(c2ccccc2C(F)(F)F)C1=O`, for which the GFP fluorescence (kMESF), higher = increase was 5.08 kMESF (inactive).
On to `Cc1ccc(S(=O)(=O)Cc2cc(F)c([N+](=O)[O-])cc2[N+](=O)[O-])cc1`, for which the GFP fluorescence (kMESF), higher = increase is 0.65 kMESF (inactive).
As to `COc1ccc(C(c2c(C)[nH]n(C(N)=S)c2=O)C(C#N)C#N)cc1` (stereo unspecified), the GFP fluorescence (kMESF), higher = increase was 4.93 kMESF (inactive).
The result for `CCN(CC(=O)NC(C)(C)C)C(=O)COc1c(Cl)cc(Cl)c2ccc(C)nc12` reads 6.41 kMESF (inactive).
The value for `O=C(C#Cc1ccccc1)c1ccco1` was 5.37 kMESF (inactive); that for `O=C(NC(=S)NNC(=O)c1cnccn1)c1ccc(Cl)cc1` was 3.51 kMESF (inactive).
In the case of `CCn1c(=O)c(C(=O)Nc2nc3ccccc3[nH]2)c(O)c2ccccc21`, the GFP fluorescence (kMESF), higher = increase was 2.38 kMESF (inactive).
The value for `O=C1C=CC(=O)N1c1ccc(N2CCCCC2)cc1` was 5.69 kMESF (inactive); that for `O=C(Nc1ccc(NC(=O)c2cc3ccccc3o2)cc1)c1ccc2c(c1)OCCO2` was 2.4 kMESF (inactive); that for `O=[N+]([O-])c1cc(O)c2ncccc2c1` was 5.96 kMESF (inactive).
The result for `Cc1ccsc1/C=N/Nc1ncc(Cl)cc1Cl` reads 5.19 kMESF (inactive).
The value for `O=C1Nc2ccccc2/C1=C\C(=O)c1ccccc1` was 5.08 kMESF (inactive); that for `N#Cc1nccnc1S(=O)(=O)c1cccs1` was 2.29 kMESF (inactive); that for `Cc1cc(/C=C2/SC(=S)N(c3cccc(Cl)c3)C2=O)c(C)n1-c1cccnc1` was 8.22 kMESF (inactive).
Consider `O=[N+]([O-])c1cc(Cl)cc(/C=N\Nc2ccccn2)c1O`, for which the GFP fluorescence (kMESF), higher = increase was 4.91 kMESF (inactive).
As to `CN(c1ccccc1)c1ccc(/C=c2\s/c(=C(/C#N)C(=O)C(C)(C)C)n(Cc3ccco3)c2=O)cc1`, the GFP fluorescence (kMESF), higher = increase is 13.7 kMESF (inactive).
The value for `COc1ccc(NC2=C(Cl)C(=O)N(CCc3ccccc3)C2=O)c(OC)c1` was 1.67 kMESF (inactive); that for `O=[N+]([O-])c1ccc(O)c2ncccc12` was 3.94 kMESF (inactive) and 3.38 kMESF (inactive).
The value for `O=C1C=CC(=O)N1c1cccc(-c2ccccc2)c1` was 5.31 kMESF (inactive); that for `O=C(Oc1cccc2cccnc12)c1ccc(Br)o1` was 1.82 kMESF (inactive); that for `O=C(COc1ccc(F)cc1Cl)Nc1nc(-c2ccccn2)cs1` was 4.88 kMESF (inactive).
The value for `COc1cc(/C=C2\C(=O)ON=C2c2ccccc2)cc(Br)c1O` was 4.31 kMESF (inactive).
With `COc1ccc(C=C2C(=O)c3ccccc3C2=O)cc1O`, the GFP fluorescence (kMESF), higher = increase is 2.67 kMESF (inactive).
For `CC(C)[C@]1(c2ccccc2)ON(c2ccccc2C(F)(F)F)C1=O`, the GFP fluorescence (kMESF), higher = increase was 2.87 kMESF (inactive).
The result for `Cc1ccc(C(=O)NNC(=S)NC(=O)COc2ccccc2)cc1` reads 6.29 kMESF (inactive); that for `Oc1cc(-c2ccc(N3CCCCC3)nc2)cc2cccnc12`, 3.04 kMESF (inactive).
